Where two headings read alike, the source gives them in different places.
How the values were obtained:
[1] = test system: Bacillus subtilis ATCC29212; experiment: Antibacterial activity, growth inhibition in 96 well plates (OD600); format: cell-based
Method: (§1) The antibacterial activity of all isolated pure compounds (1–3, 9, and 10) was evaluated on Gram-positive pathogenic bacteria such as Bacillus subtilis (ATCC29212) and Staphylococcus aureus (ATCC9144 (and Gram-negative pathogenic bacteria such as Escherichia coli. (ATCC25922) and Pseudomonas aeruginosa (ATCC27853), as previously reported. The tests were carried out in 96 well flat polystyrene plates. First, 10 μL of each isolated compound (15 µM) was transferred to 80 μL of lysogeny broth followed by the addition of 10 μL of bacterial suspension at log phase, and then all inoculated plates were incubated overnight at 37 °C. […] The absorbance was observed after 20 h at OD600 in a Spectrostar Nano Microplate Reader (BMG LABTECH GmbH, Allmendgrun, Germany). The positive control was pathogenic bacteria plus distilled water, while the negative control was growth medium plus distilled water.

[2] = test system: Escherichia coli ATCC25922; experiment: as above; format: cell-based
Method: as §1

[3] = test system: Pseudomonas aeruginosa ATCC27853; experiment: as above; format: cell-based; conditions: NA: no activity; for inhibition at 15 µM: Pseudomonas aeruginosa; for Growth inhibition % Pseudomonas aeruginosa: at 15 µM, 15 µM
Method: as §1

[4] = test system: Staphylococcus aureus ATCC9144; experiment: as above; format: cell-based; conditions: NA: no activity; for inhibition at 15 µM: Staphylococcus aureus, ATCC9144, at 15 µM; for Growth inhibition % Staphylococcus aureus: at 15 µM, 15 µM
Method: as §1

[5] = test system: S. aureus; experiment: Antibiofilm activity, crystal violet staining; format: cell-based, Staphylococcus aureus; conditions: NA: no activity; for inhibition at 2 µM: Staphylococcus aureus; for Antibiofilm activity (% inhibition) S. aureus: at 2 µM, 2 µM
Method: (§2) The biofilm-inhibitory activities of the isolated pure compounds (1–3, 9, and 10) were measured using 96 well flat polystyrene plates against four clinical microbes comprising Gram-positive (Bacillus subtilis and Staphylococcus aureus) and Gram-negative (Escherichia coli and Pseudomonas aeruginosa) pathogenic bacteria, according to Antunes, et al. with some modifications. Briefly, each well was filled with 180 µL lysogeny broth (LB broth) and then inoculated with 10 µL of pathogenic bacteria followed by addition of 10 µL of sample (2 µM) along with control (without test sample). All inoculated plates were then incubated overnight at 37 °C and, after incubation, content in the wells was removed and wells were rinsed with 200 µL of phosphate-buffered saline (PBS) pH 7.2 to eliminate free-floating microbes and left to dry under sterilized laminar flow for 1 h. For staining, 200 µL/well of crystal violet (0.1%, w/v) was added, left for 1 h, and then excessive stain was removed and plates retained for drying. Further, dried plates were rinsed with 95% ethanol and optical density was measured at 570 nm using a Spectrostar Nano Microplate Reader (BMG LABTECH GmbH, Allmendgrun, Germany).

[6] = test system: B. subtilis; experiment: Antibiofilm activity, crystal violet staining; format: cell-based; conditions: Bacillus subtilis, NA: no activity
Method: as §2

[7] = test system: E. coli; experiment: Antibiofilm activity, crystal violet staining; format: cell-based; conditions: Escherichia coli, read-out: Antibiofilm activity (% inhibition) E. coli
Method: as §2

[8] = test system: P. aeruginosa; experiment: Antibiofilm activity, crystal violet staining; format: cell-based, Pseudomonas aeruginosa; conditions: for inhibition at 2 µM: Pseudomonas aeruginosa
Method: as §2

[9] = in vitro; conditions: human
Method: (§3) The cell lines were purchased from ATCC by (VACSERA), Cairo, Egypt. […] The cell lines were used to detect the inhibitory effects of isolated compounds on cell growth. Cell viability was determined via colorimetric assay (MTT), which is based on the transformation of the yellow tetrazolium bromide to a purple formazan by mitochondrial succinate dehydrogenase. […] Subsequently, the cells were mixed with different concentrations of the isolated compounds and incubated for a further 24 h, and then treated with 20 µL of MTT solution at a concentration of 5 mg/mL and incubated for 4 h. […] The relative cell viability as a percentage was calculated as A570 of treated samples/A570 of untreated sample × 100.

[10] = test system: HCT116; experiment: Cytotoxic activity, MTT assay; conditions: Homo sapiens, HCT-116, 24 h, read-out: Cytotoxic activity (IC50) HCT116
Method: as §3

[11] = test system: MCF7; experiment: Cytotoxic activity, MTT assay; conditions: Homo sapiens, MCF7, 24 h, read-out: Cytotoxic activity (IC50) MCF7
Method: as §3

[12] = test system: HePG-2; experiment: Cytotoxic activity, MTT assay; format: cell-based; conditions: Homo sapiens, read-out: Cytotoxic activity (IC50) HePG-2
Description: (§4) Doxorubicin was used as a positive control drug.

[13] = target: T1, Staphylococcus DNA gyrase-B (Staphylococcus aureus, UniProt P0A0K8); experiment: In vitro enzyme assay, DNA gyrase-B ATPase (Inspiralis kit); format: biochemical
T1 construct: purchased Inspiralis
T1 sequence (P0A0K8 whole entry): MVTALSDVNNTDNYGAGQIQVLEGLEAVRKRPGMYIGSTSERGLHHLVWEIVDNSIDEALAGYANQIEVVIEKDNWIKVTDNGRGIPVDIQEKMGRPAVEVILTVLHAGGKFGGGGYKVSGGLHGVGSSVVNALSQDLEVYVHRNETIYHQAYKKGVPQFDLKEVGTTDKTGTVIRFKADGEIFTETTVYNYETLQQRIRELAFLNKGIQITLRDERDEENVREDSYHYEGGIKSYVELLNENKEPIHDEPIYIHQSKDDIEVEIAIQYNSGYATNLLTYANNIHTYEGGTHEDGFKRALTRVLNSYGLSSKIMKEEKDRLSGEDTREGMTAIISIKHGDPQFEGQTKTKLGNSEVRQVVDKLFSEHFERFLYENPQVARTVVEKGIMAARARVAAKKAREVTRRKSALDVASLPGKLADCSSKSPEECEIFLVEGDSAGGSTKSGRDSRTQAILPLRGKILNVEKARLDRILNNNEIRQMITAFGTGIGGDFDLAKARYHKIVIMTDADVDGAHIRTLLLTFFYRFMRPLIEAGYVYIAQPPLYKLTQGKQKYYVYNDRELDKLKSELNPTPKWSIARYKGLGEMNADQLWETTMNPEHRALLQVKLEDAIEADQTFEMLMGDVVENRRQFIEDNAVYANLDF
T1 sequence (P20831 whole entry partner): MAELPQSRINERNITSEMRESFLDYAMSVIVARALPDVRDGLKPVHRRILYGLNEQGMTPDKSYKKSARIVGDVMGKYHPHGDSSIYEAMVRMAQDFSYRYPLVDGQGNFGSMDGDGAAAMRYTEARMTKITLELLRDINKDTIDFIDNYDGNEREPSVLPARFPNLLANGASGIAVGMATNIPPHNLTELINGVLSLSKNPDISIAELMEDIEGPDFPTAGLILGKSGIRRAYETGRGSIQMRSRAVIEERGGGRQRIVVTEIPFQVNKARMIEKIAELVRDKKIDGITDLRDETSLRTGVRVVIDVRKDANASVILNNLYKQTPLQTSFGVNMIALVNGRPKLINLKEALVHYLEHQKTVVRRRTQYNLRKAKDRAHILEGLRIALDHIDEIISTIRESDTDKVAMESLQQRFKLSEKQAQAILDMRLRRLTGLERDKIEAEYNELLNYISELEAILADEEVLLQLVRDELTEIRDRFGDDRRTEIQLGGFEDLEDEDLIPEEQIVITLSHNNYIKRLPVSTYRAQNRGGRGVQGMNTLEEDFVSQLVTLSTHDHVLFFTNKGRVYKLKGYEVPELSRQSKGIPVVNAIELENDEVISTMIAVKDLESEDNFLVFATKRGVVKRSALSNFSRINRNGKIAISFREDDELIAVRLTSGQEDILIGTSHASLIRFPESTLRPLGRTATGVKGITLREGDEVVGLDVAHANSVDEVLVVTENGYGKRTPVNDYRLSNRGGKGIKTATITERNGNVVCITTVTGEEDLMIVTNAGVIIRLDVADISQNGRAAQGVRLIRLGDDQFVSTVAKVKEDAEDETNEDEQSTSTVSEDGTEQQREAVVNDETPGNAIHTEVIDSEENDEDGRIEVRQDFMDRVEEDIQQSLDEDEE
Method: (§5) DNA gyrase (type II topoisomerase) and topoisomerase IV (ParE) add negative supercoils into DNA using ATP hydrolysis as a source of energy. They are considered crucial bacterial enzymes that are absent in eukaryotes. DNA-gyrase-B- and ParE-inhibitory activities were evaluated using the Inspiralis assay kit (Inspiralis®, London, UK) on streptavidin-coated 96 well microtiter plates (Thermo Scientific, Hamburg, Germany), according to the manufacturer’s protocol. The assay detects the ability of the isolated compounds to prevent the ATPase activity of both gyrase-B and ParE subunits. On the other hand, pyruvate kinase (PK) has been discovered to be an important hub protein in the interactome of MRSA [52]. The PK-inhibitory activity of the isolated compounds was assessed according to a previously reported method.

[14] = target: Staphylococcus pyruvate kinase (PK) (Staphylococcus aureus, UniProt Q6GG09); experiment: In vitro enzyme assay, pyruvate kinase inhibition; format: biochemical; conditions: IC50 ± SD
Chain of Staphylococcus pyruvate kinase (PK) (Q6GG09 whole entry): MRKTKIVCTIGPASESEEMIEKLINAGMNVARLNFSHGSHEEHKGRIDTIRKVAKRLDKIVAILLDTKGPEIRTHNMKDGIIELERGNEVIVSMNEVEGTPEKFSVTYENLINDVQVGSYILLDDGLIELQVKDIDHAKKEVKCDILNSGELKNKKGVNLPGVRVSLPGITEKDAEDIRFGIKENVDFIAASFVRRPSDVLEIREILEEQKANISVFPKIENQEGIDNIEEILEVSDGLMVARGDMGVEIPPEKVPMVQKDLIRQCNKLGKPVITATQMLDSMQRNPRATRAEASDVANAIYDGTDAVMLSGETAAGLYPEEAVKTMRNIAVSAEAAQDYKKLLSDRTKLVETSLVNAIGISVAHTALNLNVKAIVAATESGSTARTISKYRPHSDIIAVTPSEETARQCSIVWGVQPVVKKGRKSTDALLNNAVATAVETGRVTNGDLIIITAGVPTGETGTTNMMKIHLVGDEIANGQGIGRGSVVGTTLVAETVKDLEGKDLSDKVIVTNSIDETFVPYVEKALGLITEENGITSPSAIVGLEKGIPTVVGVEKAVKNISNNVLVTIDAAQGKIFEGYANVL
Method: as §5

[15] = test system: four human cancer cell lines; experiment: Cytotoxic activity, MTT assay, all four tested cell lines together; format: cell-based; conditions: range over WI38, HCT116, HePG-2, MCF7, read-out: IC50 values towards the tested cell lines (range)
Description: as §4

[16] = ATCC29212, at 15 µM, NA: no activity, read-out: Growth inhibition % Bacillus subtilis
[17] = ATCC25922, at 15 µM, NA: no activity, read-out: Growth inhibition % Escherichia coli
[18] = ATCC27853, at 15 µM, read-out: Growth inhibition % Pseudomonas aeruginosa
[19] = at 2 µM, read-out: Antibiofilm activity (% inhibition) P. aeruginosa
[20] = IC50 ± SD, read-out: IC50 (µM) Gyr-B

`CNC(C)C1CCC(N)C(OC2C(N)CC(N)C(OC3OCC(C)(O)C(NC)C3O)C2O)O1` (centres unmarked) [Gentamicin, reference compound] gave an inhibition at 15 µM [1, 16] of 97 ± 1.6%, an inhibition at 15 µM [2, 17] of 99 ± 0.6% and an inhibition at 15 µM [3, 18] of 99.7 ± 0.2%. It also gave an inhibition at 15 µM [4] of 99.1 ± 0.7%.
With `COC(=O)c1cccc2nc3c(C(=O)OC)cccc3nc12` [Compound 1, dimethyl phenazine-1,6-dicarboxylate] the inhibition at 15 µM [1, 16] was 19.6 ± 1.5%, the inhibition at 15 µM [2, 17] was 9.93 ± 1.3% and the inhibition at 15 µM [3, 18] was 23.4 ± 1.7%. The inhibition at 15 µM [4] was 47%, the “Growth inhibition % Staphylococcus aureus” value [4] was 57.19 ± 1.2% and the inhibition at 2 µM [5] was 50%. For the same compound, the “Antibiofilm activity (% inhibition) S. aureus” value [5] was 50.26 ± 0.4%, the inhibition at 2 µM [6] was 12.1 ± 3.2% and the inhibition at 2 µM ([7]; at 2 µM) was 36.7 ± 2.9%. For the same compound, the inhibition at 2 µM [8, 19] was 18.4 ± 0.9%, the IC50 at 24 h [9] was 63.2 ± 3.6 µM and the IC50 [10] was 85 ± 3.9 µM. The IC50 [11] was over 100 µM, the IC50 ([12]; HepG2, 24 h) was 92.1 ± 4.7 µM and the IC50 [13, 20] was 19.2 ± 1.69 µM. For the same compound, the IC50 [14] was 7.2 ± 0.07 µM.
With `COC(=O)c1cccc2nc3c(C(=O)O)cccc3nc12` [Compound 2, phenazine-1,6-dicarboxylic acid mono methyl ester] the inhibition at 15 µM [1, 16] was 32.1 ± 1.3%, the inhibition at 15 µM [2, 17] was 11.2 ± 1.4% and the inhibition at 15 µM [3, 18] was 23.2 ± 2.2%. For the same compound, the inhibition at 15 µM [4] was 69%, the “Growth inhibition % Staphylococcus aureus” value [4] was 68.87 ± 0.8% and the inhibition at 2 µM [5] was 75%. The “Antibiofilm activity (% inhibition) S. aureus” value [5] was 75.10 ± 2.4%, the inhibition at 2 µM [6] was 18.6 ± 1.6% and the inhibition at 2 µM ([7]; at 2 µM) was 54.1 ± 2.5%. The inhibition at 2 µM [8, 19] was 22.3 ± 1.5%, the IC50 at 24 h [9] was 76.3 ± 3.9 µM and the IC50 [10] was 60.8 ± 3.5 µM. The IC50 [11] was 82.2 ± 4.4 µM, the IC50 ([12]; HepG2, 24 h) was 76.1 ± 3.9 µM and the IC50 [13, 20] was 21.3 ± 2.36 µM. The IC50 [14] was 9.3 ± 0.03 µM.
`COc1cccc2c1C(=O)c1c(O)c3c(c(O)c1C2=O)C[C@@](O)(C(=O)CO)C[C@@H]3O[C@H]1C[C@H](N)[C@H](O)[C@H](C)O1` [Doxorubicin, reference compound] gave an IC50 ([12]; HepG2, MTT, 24 h, table title prints "at 2 µM") of 4.5 ± 0.2 µM.
`CC(=O)Nc1ccccc1O` [Compound 9, N-(2-hydroxyphenyl)-acetamide] showed an inhibition at 15 µM [3, 18] of 4.74 ± 1.6%, an inhibition at 2 µM [5] of 11.5 ± 2.9% and an inhibition at 2 µM [6] of 4.91 ± 1.8%. For the same compound, the inhibition at 2 µM ([7]; at 2 µM) was 34.5 ± 2.6%, the inhibition at 2 µM [8, 19] was 7.39 ± 1.9% and the IC50 at 24 h [9] was 36.5 ± 2.3 µM. It also gave an IC50 [10] of 14.6 ± 1.2 µM, an IC50 [11] of 12.7 ± 1.1 µM and an IC50 ([12]; HepG2, 24 h) of 10.2 ± 0.9 µM. It also gave an IC50 [15] of 10 to 36 µM.
`O=C(O)c1cccc2nc3ccccc3nc12` [Compound 3, phenazine-1-carboxylic acid] gave an inhibition at 15 µM ([1]; ATCC29212, read-out: Growth inhibition % Bacillus subtilis) of 1.69 ± 1.2%, an inhibition at 15 µM ([2]; ATCC25922, read-out: Growth inhibition % Escherichia coli) of 24.3 ± 1.8% and an inhibition at 15 µM ([3]; ATCC27853, read-out: Growth inhibition % Pseudomonas aeruginosa, at 15 µM) of 94%. The “Growth inhibition % Pseudomonas aeruginosa” value [3] was 94.17 ± 2.8%, the inhibition at 2 µM [7] was 54.7 ± 1.4% and the inhibition at 2 µM ([8]; read-out: Antibiofilm activity (% inhibition) P. aeruginosa, at 2 µM) was 94%. The “Antibiofilm activity (% inhibition) P. aeruginosa” value ([8]; at 2 µM) was 93.98 ± 2.2%, the IC50 at 24 h [9] was 51.2 ± 3.2 µM and the IC50 [10] was 91.3 ± 4.6 µM. The IC50 [11] was over 100 µM, the IC50 ([12]; HepG2, 24 h) was over 100 µM and the IC50 [13] was 27.7 ± 1.08 µM. The IC50 [14] was 22.5 ± 0.04 µM.
Work on `COc1ccc(C(N)=O)cc1` [Compound 10, p-anisamide] yielded an inhibition at 15 µM [1, 16] of 42.2 ± 1.9%, an inhibition at 15 µM [2, 17] of 19.3 ± 2.5% and an inhibition at 15 µM [3, 18] of 70%. For the same compound, the “Growth inhibition % Pseudomonas aeruginosa” value [3] was 70.23 ± 1.1%, the inhibition at 15 µM [4] was 53.2 ± 1.2% and the inhibition at 2 µM [5] was 61.2 ± 3.7%. It also gave an inhibition at 2 µM [6] of 20.3 ± 1.1%, an inhibition at 2 µM ([7]; at 2 µM) of 57.5 ± 3.1% and an inhibition at 2 µM [8, 19] of 73%. The “Antibiofilm activity (% inhibition) P. aeruginosa” value ([8]; at 2 µM) was 73.52 ± 1.3%, the IC50 at 24 h [9] was over 100 µM and the IC50 [10] was over 100 µM. The IC50 [11] was over 100 µM and the IC50 ([12]; HepG2, 24 h) was over 100 µM.

— article PMC7281614, “Induction of Antibacterial Metabolites by Co-Cultivation of Two Red-Sea-Sponge-Associated Actinomycetes Micromonospora sp. UR56 and Actinokinespora sp. EG49” (Marine Drugs, 2020)
